Measurements reported in the supplement of paper PMC10307832.

How the values were obtained:
Assay in all cases: relative viability (nuclei count vs DMSO), 5 days (fraction); higher = more cells survive
[1] = compound: COC1=CC(c2cc3ccccc3[nH]2)=N/C1=C\c1[nH]c(C)cc1C [Obatoclax] + O=C(c1cc(Cc2n[nH]c(=O)c3ccccc23)ccc1F)N1CCN(C(=O)C2CC2)CC1 [Olaparib] (partner 8 µM)
How it was run: (§1)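 Relative viability divides the nuclei count in treated wells by that in vehicle wells. Lung cancer cell lines were seeded in 1536-well plates, dosed by pin tool the next day, and fixed and stained after 5 days in one step with final 0.05% Triton X-100, 1% formaldehyde and 1 ug/ml Hoechst. Dosing was a single drug or a fixed anchor-drug dose plus five library-drug doses (not always all listed) in √10 steps, and values are medians of duplicate plates imaged at 4×.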

[2] = compound: CC1=CC(=NN1)NC2=CC(=NC(=N2)/C=C/C3=CC=CC=C3)N4CCN(CC4)C + COc1cc2c(Oc3ccc(NC(=O)C4(C(=O)Nc5ccc(F)cc5)CC4)cc3F)ccnc2cc1OCCCN1CCOCC1 [Foretinib] (partner 0.25 µM)
How it was run: as §1

[3] = compound: COC1=CC(c2cc3ccccc3[nH]2)=N/C1=C\c1[nH]c(C)cc1C [Obatoclax] + Nc1ncn([C@H]2C[C@H](O)[C@@H](CO)O2)c(=O)n1 [Decitabine] (partner 2 µM)
How it was run: as §1

[4] = compound: CC1=CC(=NN1)NC2=CC(=NC(=N2)/C=C/C3=CC=CC=C3)N4CCN(CC4)C + CC1(C)CCC(c2ccc(Cl)cc2)=C(CN2CCN(c3ccc(C(=O)NS(=O)(=O)c4ccc(N[C@H](CCN5CCOCC5)CSc5ccccc5)c(S(=O)(=O)C(F)(F)F)c4)cc3)CC2)C1 [Navitoclax] (partner 0.5 µM)
How it was run: as §1

| Cell Line | relative viability ([1]; first compound 0.01 µM) | relative viability ([1]; first compound 0.03162 µM) | relative viability ([1]; first compound 0.1 µM) | relative viability ([1]; first compound 0.3162 µM) | relative viability ([1]; first compound 1 µM) | relative viability ([2]; first compound 0.08 µM) | relative viability ([2]; first compound 0.253 µM) | relative viability ([2]; first compound 0.8 µM) | relative viability ([2]; first compound 2.53 µM) | relative viability ([2]; first compound 8 µM) | relative viability ([3]; first compound 0.01 µM) | relative viability ([3]; first compound 0.03162 µM) | relative viability ([3]; first compound 0.1 µM) | relative viability ([3]; first compound 0.3162 µM) | relative viability ([3]; first compound 1 µM) | relative viability ([4]; first compound 0.08 µM) | relative viability ([4]; first compound 0.253 µM) | relative viability ([4]; first compound 0.8 µM) | relative viability ([4]; first compound 2.53 µM) | relative viability ([4]; first compound 8 µM) |
| --- | --- | --- | --- | --- | --- | --- | --- | --- | --- | --- | --- | --- | --- | --- | --- | --- | --- | --- | --- | --- |
| HARA | 0.639 | 0.962 | 1.03 | 0.99 | 0.89 | 0.932 | 0.909 | 0.794 | 0.098 | 0.0593 | 0.52 | 0.593 | 0.528 | 0.462 | 0.405 | 1.17 | 1.16 | 1.13 | 0.982 | 0.238 |
| NCI-H1975 | 0.78 | 0.695 | 0.746 | 0.744 | 0.288 | 0.928 | 1.02 | 0.795 | 0.326 | 0.128 | 0.476 | 0.365 | 0.322 | 0.38 | 0.278 | 0.977 | 1.12 | 1.08 | 0.616 | 0.134 |
| NCI-H2085 | 0.726 | 0.784 | 0.747 | 0.816 | 0.708 | 0.972 | 1.04 | 0.842 | 0.552 | 0.227 | 0.531 | 0.484 | 0.524 | 0.499 | 0.472 | 1.24 | 1.19 | 0.994 | 0.489 | 0.315 |
| NCI-H3122 | 0.655 | 0.517 | 0.642 | 0.613 | 0.678 | 0.957 | 0.928 | 0.965 | 0.873 | 0.383 | 0.434 | 0.489 | 0.39 | 0.435 | 0.453 | 1 | 0.996 | 0.991 | 0.918 | 0.896 |
| NCI-H1651 | 0.182 | 0.164 | 0.189 | 0.224 | 0.179 | 0.732 | 0.899 | 0.913 | 0.447 | 0.162 | 0.582 | 0.338 | 0.434 | 0.355 | 0.495 | 0.974 | 1.11 | 0.837 | 0.424 | 0.129 |
| NCI-H441 | 0.63 | 0.6 | 0.527 | 0.359 | 0.288 | 1.16 | 0.649 | 1.18 | 0.384 | 0.177 | 0.213 | 0.272 | 0.287 | 0.2 | 0.194 | 0.704 | 0.503 | 0.302 | 0.187 | 0.122 |
| NCI-H2126 | 0.872 | 0.851 | 0.903 | 0.865 | 0.918 | 1.06 | 1.09 | 1.19 | 1.03 | 0.587 | 0.56 | 0.536 | 0.574 | 0.561 | 0.587 | 0.839 | 0.871 | 0.806 | 0.772 | 0.478 |
| RERF-LC-KJ | 0.897 | 0.903 | 0.897 | 0.863 | 0.33 | 0.846 | 0.93 | 0.824 | 0.744 | 0.586 | 0.693 | 0.632 | 0.643 | 0.613 | 0.291 | 1.05 | 1.01 | 0.764 | 0.361 | 0.189 |
